pIC50: −log10 of the molar value. Square brackets hold non-standard residues; d marks the D form. Ends that are not written are not given here. Peptide text beside a SMILES is read from it. Hyp = O=C(O)[C@@H]1C[C@@H](O)CN1
What was measured:
[1] = type: in vitro ADME, Periplaneta americana; details: for peptide remaining after incubation with haemolymph: 24 h
Protocol: Degradation of the Met-callatostatins induced by the haemolymph was assessed by measuring the difference between the amount of added peptide at the start of the incubation period and the total immunoassayable material present at its conclusion. Since the radioimmunoassay (RIA) is carboxy-terminal specific, any degradation at the carboxy-terminus, as for example by metalloendopeptidases able to cleave the Phe-Gly bond (Lamango et al in Insect Biochem. Mol. Biol. 23, 801-808 (1993)), would render the molecule non-immunoreactive. On the other hand partial amino-terminus degradation would result in peptides able to bind to the anti-Met-callatostatin antibodies present in the RIA solution. The mixture remaining after incubation would, therefore, contain all intact molecules and any degradation products with a carboxy-terminus of sufficient length to cross-react within the RIA. Experiments were carried out in an insect Ringer's solution containing Hepes buffer (Holman et al in Insect Biochem 21 107-112 (1991)) at 24° C. and pH 7.0 over several time periods from 15 minutes to 24 hours. In some experiments EDTA (10 mM final concentration) was added with the purpose of inhibiting metalloendopeptidases. For both C. vomitoria and P. americana 1 μl of a […] peptide solution was added to 20 μl of Ringer's solution and 15 μl pooled haemolymph. For C. vomitoria 15 μl was taken from the pooled haemolymph of 10 vitellogenic females, and for P. americana the same volume was obtained from 3-4 ootheca-carrying females. At the conclusion of the incubation period 5 μl of an 8% solution of trichloroacetic acid was added to stop the degradation process. The mixture was centrifuged for 1 minute, an 40 μl of the supernatant was added to 20 μl of water, 0.1% trifluoroacetic acid (TFA) prior to chromatography. Chromatography was carried out on a Kromasil™ (Technicol) C18 250×4.6 mm, 5 μm, 300 Å column with a gradient of 0-30% CH3 CN, 0.1% TFA at a flow rate of 1 ml/min with a rate of change of 1.0%/min. Fractions that were immunoreactive in the Met-callatostatin RIA were rechromatographed on a Delta Pak™ (Waters) C18 250×2.1 mm, 5 μm, 300 Å column with a gradient of 10-30% CH3 CN, 0.1% TFA at a flow rate of 0.2 ml/min with a rate of change of 0.5%/min. Peaks of Met-callatostatin-immunoreactive material were measured by RIA, and amino acid sequences were determined.

[2] = tested on: Juvenile Hormone III release from corpora allata of virgin P. americana; test: Radiochemical assay, inhibition of JH III release from isolated corpora allata of P. americana; type: cell-based, Periplaneta americana; details: 4- to 6-day-old virgin females, three hour incubations, read-out: IC50, inhibition of JH release from isolated CA
Protocol: (§1) Peptides identified from the extracts were synthesized (Affinity Research Products) and tested in radiochemical assays to determine their effects on the synthesis and release of juvenile hormone bisepoxide from the isolated CA of vitellogenic female C. vomitoria. Similar assays were also carried out on the CA of the cockroaches P. americana (4- to 6-day-old virgin females) and B. germanica (6-day-old virgin females). Details of the methods used have been published previously (C. vomitoria in Duve et al in Proc. Nat'l. Acad. Sci. USA 90 2456-2460 (1993), P. americana in Weaver et al in C Comp. Pharmacol. Toxicol. 107, 119-127 (1994), and Weaver, R. C. in J. Insect Physiol. 37, 111-118 (1991), and B. germanica in Piulachs et al in A Comp. Physiol. 102, 477-480 (1992). For C. vomitoria and P. americana the donor methyl group for incorporation into the JH was provided by L-[methyl-^14 C]methionine, 2.04 GBq/mmol (Amersham International plc), added to methionine-free TCC 199 medium to give a final concentration of 260 μM and for B. germanica by L-[methyl-^3 H]methionine, 3.03 TBq/mmol (Amersham) added to TCC 199 medium containing methionine to achieve a concentration of 100 μM and a final specific activity of 7.4 GBq/mmol.
For comparison, the activity of Met-callatostatin was also assayed. […]

[3] = tested on: JH release from CA of B. germanica; test: Radiochemical assay, inhibition of JH release from isolated corpora allata of B. germanica; type: cell-based, Blattella germanica; details: results not shown
Protocol: as §1

[4] = tested on: juvenile hormone bisepoxide release from the CA of C. vomitoria; test: Radiochemical assay, release of juvenile hormone bisepoxide from isolated CA of C. vomitoria; type: cell-based, Calliphora vomitoria; details: results not shown
Protocol: as §1

hindgut of C. vomitoria = test: Inhibition of peristalsis of the hindgut (ileum) of C. vomitoria; parameters: species or system Calliphora vomitoria; details: for inhibition of normal peristaltic movements of the ileum: at 1 μm, normal movements 9-10/min
Protocol: Adult female C. vomitoria were fed sugar, water and meat for 7 days prior to studying the effect of synthetic peptides (Affinity Research Products Ltd, Nottingham) on gut motility. The stage of development of the oocytes of each fly was recorded to provide a physiological base line. The gut and reproductive system were transferred to a 100-μl Sylgard chamber (Sylgard 184, Dow Corning) and bathed in a Calliphora Ringer's solution (Duve et al in Regul. Pept. 35 145-159 (1991)). Peristaltic movements of the ileum and the other forms of contraction in the rest of the gut and reproductive musculature were observed under a microscope. The preparation was superfused with several washes of Ringer's solution, after which peristaltic movements of the ileum were counted over a 2-minute period. The bathing fluid was replaced with fresh Ringer's solution containing the test peptide and the counting repeated. This procedure could be carried out many times for a single preparation.
Peptide solutions were made up in Ringer's solution on the day of the experiments, which were carried out at 22° C. Approximately 50 female flies were used.
Each point represents the mean of 5-16 measurements from a number of different vitellogenic female flies (callatostatin is abbreviated to cast in the figure).

[5] = tested on: Met-callatostatin antisera; test: Liquid-phase absorption of Met-callatostatin antisera (ICC control); type: binding, rabbit; details: at 50 μM
Description: A variety of tissues including brain, corpora cardiaca-CA-hypocerebral ganglion complex, thoracicoabdominal ganglion, and the entire gut were fixed in aqueous Bouin's fluid, embedded in paraffin, and sectioned at 6 μm (Duve et al in Cell Tissue Res. 251, 399-415 (1988)). The peroxidase-antiperoxidase method of Sternberger (publ. "Immunocytochemistry" 1974)) was used in combination with the three Met-callatostatin antisera, from rabbits D1, D2 and D3, each of which gave essential, the same results. The results presented here were obtained mainly with antiserum from rabbit D1 bleed 5 used at a concentration of 1:2000 for 24 h at 4° C. Other tissues, including the brain, thoracicoabdominal ganglion, and the gut, complete with its neural connections, were fixed in 4% paraformaldehyde for whole-mount studies using the indirect immunofluorescence technique with either UV or confocal laser scanning microscopy. After fixation, tissues were washed in phosphate-buffered saline and permeabilized in methanol in phosphate-buffered saline. The tissues were washed in phosphate-buffered saline containing 0.2% bovine serum albumin and Triton X-100 (PBT buffer). Incubation of tissues with the Met-callatostatin antisera was at 4° C. over 24 h. […]

[6] = pooled haemolymph of C. vomitoria in insect Ringer's solution containing Hepes buffer, pH 7.0; details: C. vomitoria (10 vitellogenic females), 24° C., up to 24 hours
[7] = pooled haemolymph of P. americana in insect Ringer's solution containing Hepes buffer, pH 7.0; details: P. americana (3-4 ootheca-carrying females), 24° C., up to 24 hours
[8] = pooled haemolymph of 10 vitellogenic females in insect Ringer's solution containing Hepes buffer; details: C. vomitoria, 24° C., up to 24 hours

| Molecule | degradation by enzymes in the haemolymph of cockroaches [1] | pIC50 [2] | pIC50 [3] | effect on the release of juvenile hormone bisepoxide from the CA [4] | inhibition of normal peristaltic movements of the ileum (hindgut of C. vomitoria) | cleavage product identified after incubation [1] | degradation in haemolymph [1] | peptide remaining after incubation with haemolymph [1] | abolition of immunostaining by absorption of antisera [5] | fragment found [6] | fragment found [7] | fragment found [8] | pIC50 (hindgut of C. vomitoria; monophasic dose-response curve) |
| --- | --- | --- | --- | --- | --- | --- | --- | --- | --- | --- | --- | --- | --- |
| CSCC[C@H](NC(=O)CNC(=O)[C@H](Cc1ccccc1)NC(=O)[C@H](CC(=O)O)NC(=O)[C@H](Cc1ccc(O)cc1)NC(=O)[C@@H]1CCCN1C(=O)[C@@H]1C[C@@H](O)CN1C(=O)CN)C(N)=O [[Hyp^2]Met-callatostatin, Gly-Hyp-Pro-Tyr-Asp-Phe-Gly-Met-NH2] (H-G[Hyp]PYDFGM-NH2) | not |  |  |  |  |  |  |  |  |  |  |  |  |
| CSCC[C@H](NC(=O)CNC(=O)[C@H](Cc1ccccc1)NC(=O)[C@H](CC(=O)O)NC(=O)[C@H](Cc1ccc(O)cc1)NC(=O)[C@@H]1C[C@@H](O)CN1C(=O)[C@@H]1CCCN1C(=O)CN)C(N)=O [[Hyp^3]Met-callatostatin, Gly-Pro-Hyp-Tyr-Asp-Phe-Gly-Met-NH2] (H-GP[Hyp]YDFGM-NH2) | not | 10.00 | 6.00 | neither peptide had any effect | completely inhibited | not | more resistant | less than 10% | abolished the immunostaining |  |  |  |  |
| GPPYDFGM-NH2 |  |  |  |  |  |  |  |  |  | oxidised form of the parent compound, 2-hour | Tyr-Asp-Phe-Gly-Met-NH2 (SEQ ID NO:9), 2-hour | oxidised form of the parent compound |  |
| GPPYDFGM-NH2 [Met-callatostatin, Gly-Pro-Pro-Tyr-Asp-Phe-Gly-Met-NH2] | able to degrade | 10.00 | 6.00 | neither peptide had any effect | completely inhibited | Tyr-Asp-Phe-Gly-Met-NH2 | degraded to approximately the same extent as in C. vomitoria | less than 10% | abolished the immunostaining |  |  |  | 7.00 |
| GP[Hyp]YDFGM-NH2 |  |  |  |  |  |  |  |  |  | oxidised form of the parent compound, 2-hour |  | oxidised form of the parent compound |  |
